Laboratory results from ChEMBL document CHEMBL1131258, “Synthesis and glutathione S-transferase structure-affinity relationships of nonpeptide and peptidase-stable glutathione analogues” (J Med Chem, 1998).

Tested on: glutathione S-transferase (Schistosoma japonicum); call rule not given here
Test: Affinity towards recombinant Glutathione S-transferase (GST) Enzyme; NA indicates No affinity

Structure (SMILES)	IC50
O=C(O)CCCCC(CS)CCCCC(=O)O	Not Active
O=C(O)CCCCCC(CS)CCCCC(=O)O (stereo not given)	Not Active
O=C(O)CC/C=C/C(CO)CCCCC(=O)O (stereo not given)	Not Active
O=C(O)CCCCCCC(CS)CCCC(=O)O (stereo not given)	Not Active
O=C(O)CC/C=C/C(CS)CCCCC(=O)O (stereo not given)	Not Active
